The numbers were not newly measured in US9433643B2, “Microbicidal composition comprising hydrogen peroxide and aminocarboxylic acids” (Truox, Inc., priority 2013, dated 2016), which cites them from elsewhere.

In general, pKa refers to the pH at which an ionisable group is half protonated.

The conditions of data set [1]: reported.
For data set [2] the following is noted: at 25° C., reported.

`O=C(O)CN(CCN(CC(=O)O)CC(=O)O)CC(=O)O` [EDTA, ethylenediaminetetraacetic acid]: in data set [1] (carboxylic acid groups), the pK1 is 2.00, the pK2 is 2.65, the pK3 is given as 6.18 and the pK4 is recorded as 10.30.
Regarding `CC(=O)OO` [Peroxyacetic acid], the pKa in data set [1] was 4.76.
Consider `C[C@H](N)C(=O)O` [alanine], for which, in data set [2], the “isoelectric point (pI)” value is 6.11.
Regarding `N=C(N)NCCC[C@H](N)C(=O)O` [arginine], in data set [2], the “isoelectric point (pI)” value is 10.76.
In the case of `N[C@@H](CC(=O)O)C(=O)O` [aspartic acid], the “isoelectric point (pI)” value in data set [2] is given as 2.98.
`N[C@@H](CCC(=O)O)C(=O)O` [glutamic acid]: the “isoelectric point (pI)” value in data set [2] is listed as 3.08.
In the case of `NCC(=O)O` [glycine, aminoethanoic acid], the “isoelectric point (pI)” value in data set [2] was 6.06.
